# Results published in patent US11530211B2, “Dihydroindolizinone derivative” (DAIICHI SANKYO COMPANY, LIMITED, priority 2018, dated 2022).
# Like-named read-outs stand apart in the source and are kept apart here.
# Legend:
# [1] = tested on: human iPS cell Toe strain; assay: Effect to promote differentiation from human iPS cells into insulin-producing cells (insulin-positive cell rate, imaging); format: cell-based; parameters: key to Activity: +: the sum of activity values at the two concentrations was obviously higher than the control untreated with compounds while being lower than the positive control; ++: the sum was equivalent to the positive control; +++: the sum was higher than the positive control; settings: for EC50: efficacy of 10 μM of the compound of Example 1 taken as 100%, 0.01 to 10 μM, read-out: E050; for Activity: sum of activity values at 2 μM and 10 μM compared with positive control (compound of Example 1), added at stages 3 to 5
# From the text: The evaluation system of the effect (efficacy) to promote differentiation from human iPS cells into insulin-producing cells was constructed with reference to known information (Non Patent Document 6). Further, the medium used in each differentiation stage was also produced with reference to known information (differentiation media A to E (Media A to E) described in Non Patent Document 6 were used respectively for stages 1 to 5; however, a medium free from GLP-1 receptor agonist and nicotinamide was used as differentiation medium E).
# In order to evaluate the efficacy of each compound, the compound of Example 1 was used as a positive control, and dimethylsulfoxide (DMSO) (SIGMA, D2650) with a final concentration of 0.1% was used as a control untreated with compounds. […] In the following evaluation, the compound solutions were added to the medium to 0.1% that is the final concentration of DMSO. First, induction from human iPS cell Toe strain (National Institutes of Biomedical Innovation, Health and Nutrition) into cells on day 7 of culture (2 days after replacement with differentiation medium C (cells in the differentiation process from FOXA2-positive primitive gut tube cells into PDX1-positive pancreatic progenitor cells)) was performed according to the method of Non Patent Document 6 for “inducing differentiation from human iPS cells into pancreatic β cells”, and the cells were collected and thereafter stored in liquid nitrogen using Bambanker (NIPPON Genetics Co, Ltd.) at 1×10^7 cells/mL/tube, to produce a cell stock for evaluation. The cell stock was dissolved at the start of the evaluation of efficacy, suspended in differentiation medium C for stage 3 (DMEM high glucose (Life technologies, 11965092), 0.25 μM SANT-1, 0.1 μM LDN193189 (Stemgent, 04-0074), 10 μM SB431542, 2 μM Retinoic acid (Stemgent, 04-0021), 1% B27 serum free supplement (Life technologies, 17504044) and thereafter seeded in a 96-well plate (Corning, #3340) coated with Synthemax II (Corning, #5656) at 1×10^5 cells/well. After culturing for 2 days, the medium was removed, and new differentiation medium C for stage 3 with the compound or only DMSO added was added thereto at 100 μL/well. After culturing for 2 days, the medium was removed, and new differentiation medium D for stage 4 (DMEM high glucose, 0.1 μM LDN193189, 5 μM TGF-β type I receptor kinase inhibitor II (Calbiochem 616452), 0.3 μM (−)-indolactam V (Enzo life science ALX-420-011-C300), 1% B27 serum free supplement) with the compound or only DMSO added was added thereto at 100 μL/well. After culturing for 2 to 3 days, the medium was removed, and new differentiation medium E for stage 5 (GLP-1 receptor agonist and nicotinamide-free; Knockout […] (Life technologies, 12660012), 1% B27 serum free supplement) with the compound or only DMSO added was added thereto at 200 μL/well. After culturing for 2 days, the medium was removed, and a 4% paraformaldehyde phosphorus acid buffer (Wako, 163-20145) was added thereto at 150 μL/well and left standing for 30 to 60 minutes at room temperature to fix the cells. A phosphorus acid buffer (PBS) (Takara, T9181) containing 1% Triton X-100 (Sigma, T8787) was left standing for 15 minutes at room temperature, then washed with PBS-T (Takara, T9183), and was blocked for 1 hour using 20% Blocking One (Nacalai tesque, Tokyo, Japan) diluted with PBS-T at room temperature. After the removal of Blocking One, guinea pig anti-insulin antibody (Abcam, ab7842) diluted 200-fold with 20% Blocking One was added thereto at 50 μL/well, followed by standing at 4° C. overnight. After washing with PBS-T 3 times, […]-labeled anti-guinea pig antibody (Life Technologies, A11075) diluted 1000-fold with 20% Blocking One and 6-diamidino-2-phenylindole (DAPI) (Roche Diagnostics, Basel, Switzerland) were added thereto, followed by standing at room temperature for 2 hours. After washing with PBS-T 3 times, the fluorescence images of the cells were analyzed. […]
# UCHL1 = target: T1, UCHL1 (Homo sapiens, UniProt P09936); assay: Evaluation of UCHL1 activation (ubiquitin-AMC hydrolysis); settings: test compound 10 μM; control (DMSO) = 100; fluorescence increment 10 minutes to 2 hours; n=3
# T1 sequence (P09936 1-223): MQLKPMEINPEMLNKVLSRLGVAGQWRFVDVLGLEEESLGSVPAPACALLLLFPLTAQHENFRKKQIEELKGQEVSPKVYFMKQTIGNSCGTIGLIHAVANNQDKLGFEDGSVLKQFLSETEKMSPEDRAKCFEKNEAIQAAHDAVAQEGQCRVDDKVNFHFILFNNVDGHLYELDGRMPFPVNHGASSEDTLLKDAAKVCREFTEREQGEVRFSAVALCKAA
# Procedure: Using dimethylsulfoxide (DMSO) (SIGMA, D2650) as a control untreated with compounds (which will be hereinafter referred to as control), each test compound was dissolved in DMSO in use. DMSO and the test compound solutions were each added to the enzymatic reaction solution to a final concentration of 2%. […] The amount of fluorescence (excitation wavelength: 350 nm and fluorescence wavelength: 440 nm) of AMC generated due to hydrolysis of the fluorescence-labeled substrate was measured 10 minutes and 2 hours after the start of the enzymatic reaction, to calculate the increment in amount of fluorescence by subtraction between the two.
# The amount of fluorescence of AMC was measured using Envision (PerkinElmer). The increment in amount of fluorescence of the control was taken as 100%, and the increment in amount of fluorescence of each test compound was expressed as a percentage (%) based on this, to obtain an enzymatic activity value. Enzymatic activity value (%)={(Amount of fluorescence increment of each test compound)/(Amount of fluorescence increment of control)}×100
# ZDF disease rats = assay: Glucose tolerance test after 4 weeks repeated oral administration in ZDF rats; format: in vivo, rat; settings: 10 mg/kg orally once a day for 4 weeks; Day 28; 60 minutes after 2 g/kg glucose loading minus before loading; male ZDF disease rats
# Procedure: After repeated oral administration of the compound according to Example 9 to 8 week-old male ZDF disease rats (CHARLES RIVER LABORATORIES JAPAN, INC.) for 4 weeks (from Day 1 to 28), a glucose tolerance test was conducted on Day 28 to investigate the effect to improve the pathological conditions of diabetes. On Day 0, the ZDF disease rats were subjected to measurement of blood sugar, insulin value, and body weight, as needed, and were grouped by multivariable block assignment. The experiments were conducted in a total of 3 groups of 4 male ZDF Lean rats (lean group), a group of 8 ZDF disease rats with a 0.5 w/v % methylcellulose 400 solution (which will be hereinafter referred to as 0.5% MC) administered (vehicle group), and a group of 8 ZDF disease rats with the compound of Example 9 administered (Example 9 group). The compound according to Example 9 was suspended in 0.5% MC and was orally administered 10 mg/kg once a day.
# The glucose tolerance test was conducted as follows. […] Before the glucose loading and 60 minutes after the glucose loading, blood was collected from the tail vein, and the blood sugar was measured.
# The blood sugar was measured using glucose C2-Test Wako (Cat No. 437-90902 for 700 times, available from Wako Pure Chemical Industries, Ltd).
SMILES,EC50 ([1]; Homo sapiens),other results
CC1(C(=O)Nc2ncc(-c3ccc(OC(F)(F)F)cc3)s2)CCC(=O)c2cccn21 (centres unmarked) [Example 65],1800 nM,
"CC(C)(C)Oc1ccc(-c2cnc(NC(=O)C3CCC(=O)c4cccn43)s2)cc1 (centres unmarked) [Example 11, N-[5-(4-Tert-butoxyphenyl)thiazol-2-yl]-8-oxo-6,7-dihydro-5H-indolizine-5-carboxamide]",490 nM,
"O=C1CCC(C(=O)Nc2ncc(-c3ccc(OCc4ccccc4)c(F)c3)s2)n2cccc21 (centres unmarked) [Example 43, N-[5-(4-Benzyloxy-3-fluorophenyl)thiazol-2-yl]-8-oxo-6,7-dihydro-5H-indolizine-5-carboxamide]",190 nM,
"Cc1nc(NC(=O)C2CCC(=O)c3cccn32)sc1-c1ccc(OC(F)(F)F)cc1 (centres unmarked) [Example 36, N-[4-Methyl-5-[4-(trifluoromethoxy)phenyl]thiazol-2-yl]-8-oxo-6,7-dihydro-5H-indolizine-5-carboxamide]",310 nM,
Cc1ccc(-c2cnc(NC(=O)C3CCC(=O)c4cccn43)s2)cc1 (centres unmarked) [Example 18],,Activity [1]: ++
"Cc1nc(NC(=O)C2CCC(=O)c3cccn32)sc1-c1ccc(OC(C)(C)C)cc1 (centres unmarked) [Example 35, N-[5-(4-tert-Butoxyphenyl)-4-methylthiazol-2-yl]-8-oxo-6,7-dihydro-5H-indolizine-5-carboxamide]",250 nM,
"O=C1CCC(C(=O)Nc2ncc(-c3ccc(OC(F)(F)F)cc3)s2)n2cccc21 (single isomer, unassigned) [Example 10b]",,EC50 [1]: 220 nM; Activity [1]: +++
"O=C1CCC(C(=O)Nc2ncc(-c3ccc(OCC(F)(F)F)cc3)s2)n2cccc21 (centres unmarked) [Example 45, 8-Oxo-N-[5-[4-(2,2,2-trifluoroethoxy)phenyl]thiazol-2-yl]-6,7-dihydro-5H-indolizine-5-carboxamide]",130 nM,
"O=C1CCC(C(=O)Nc2nc3ccc(-c4ccc(OC(F)(F)F)cc4)cc3s2)n2cccc21 (centres unmarked) [Example 59, 8-Oxo-N-[6-[4-(trifluoromethoxy)phenyl]-1,3-benzothiazol-2-yl]-6,7-dihydro-5H-indolizine-5-carboxamide]",540 nM,
"O=C1CCC(C(=O)Nc2ncc(-c3ccc4c(c3)OC(F)(F)O4)s2)n2cccc21 (centres unmarked) [Example 40, N-[5-(2,2-Difluoro-1,3-benzodioxol-5-yl)thiazol-2-yl]-8-oxo-6,7-dihydro-5H-indolizine-5-carboxamide]",820 nM,
"Cc1nc(NC(=O)C2CCC(=O)c3cccn32)sc1-c1ccc(OC(C)(C)C)cc1 (single isomer, unassigned) [Example 101b]",90 nM,Activity [1]: +++; Enzyme activity (c/o) (UCHL1): 318 c/o
"O=C1CCC(C(=O)Nc2ncc(-c3ccc(Oc4ccccc4)cc3)s2)n2cccc21 (centres unmarked) [Example 46, 8-Oxo-N-[5-(4-phenoxyphenyl)thiazol-2-yl]-6,7-dihydro-5H-indolizine-5-carboxamide]",540 nM,
"O=C1CCC(C(=O)Nc2ncc(-c3ccc(OC(F)(F)F)cc3)s2)n2cccc21 (single isomer, unassigned) [Example 10a]",,EC50 [1]: 1200 nM; Activity [1]: +++
"O=C1CCC(C(=O)Nc2ncc(-c3ccccc3)s2)n2cccc21 (centres unmarked) [Example 1, 8-Oxo-N-(5-phenylthiazol-2-yl)-6,7-dihydro-5H-indolizine-5-carboxamide]",5800 nM,
"Cc1nc(NC(=O)C2CCC(=O)c3cccn32)sc1-c1ccc(OCC(F)(F)F)cc1 (centres unmarked) [Example 88, N-[4-Methyl-5-[4-(2,2,2-trifluoroethoxy)phenyl]thiazol-2-yl]-8-oxo-6,7-dihydro-5H-indolizine-5-carboxamide]",240 nM,Enzyme activity (c/o) (UCHL1): 422 c/o
"O=C1CCC(C(=O)Nc2ncc(-c3ccc(OC(F)(F)F)c(Cl)c3)s2)n2cccc21 (centres unmarked) [Example 30, N-[5-[3-Chloro-4-(trifluoromethoxy)phenyl]thiazol-2-yl]-8-oxo-6,7-dihydro-5H-indolizine-5-carboxamide]",1000 nM,
"O=C1CCC(C(=O)Nc2nc3ccc(-c4ccc(Cl)cc4)cc3s2)n2cccc21 (centres unmarked) [Example 93, N-[6-(4-Chlorophenyl)-1,3-benzothiazol-2-yl]-8-oxo-6,7-dihydro-5H-indolizine-5-carboxamide]",290 nM,
"O=C1CCC(C(=O)Nc2ncc(-c3ccc4ccccc4c3)s2)n2cccc21 (centres unmarked) [Example 24, N-[5-(2-Naphthyl)thiazol-2-yl]-8-oxo-6,7-dihydro-5H-indolizine-5-carboxamide]",,Activity [1]: +
"O=C1CCC(C(=O)Nc2ncc(-c3ccc(C(F)(F)F)cc3)s2)n2cccc21 (centres unmarked) [Example 21, 8-Oxo-N-[5-[4-(trifluoromethyl)phenyl]thiazol-2-yl]-6,7-dihydro-5H-indolizine-5-carboxamide]",450 nM,
O=C1CC(C(=O)Nc2ncc(-c3ccc(OC(F)(F)F)cc3)s2)n2cccc21 (centres unmarked) [Example 58],1600 nM,
"Cc1nc(NC(=O)C2CCC(=O)c3cccn32)sc1-c1ccc(OC(C)(C)C)cc1 (single isomer, unassigned) [Example 101a]",,Activity [1]: +
"O=C1CCC(C(=O)Nc2ncc(-c3ccc(OC(F)(F)F)cc3)s2)n2cccc21 (centres unmarked) [Example 9, 8-Oxo-N-[5-[4-(trifluoromethoxy)phenyl]thiazol-2-yl]-6,7-dihydro-5H-indolizine-5-carboxamide]",230 nM,Δ Plasma glucose (ZDF disease rats): -275.8 mg/dL; Enzyme activity (c/o) (UCHL1): 270 c/o
